Data from patent US6872850B2, “Small molecule inhibitors of secretion of proteins encoded by ARE-mRNAs” (Message Pharmaceuticals, priority 2001, dated 2005).

Test system: 3′ UTR of the TNFα gene
Test: cell-based luciferase reporter assay, 5B cell line (luciferase gene with entire 3′ UTR of the TNFα gene)
Design: species or system mouse
Conditions: for Luciferase 5B (% of DMSO control) / Luciferase 5B/3B (% of DMSO control 5B)/(% of DMSO control 3B): 10 μM compound; for Luciferase 5B (% of DMSO control): 1 h, then LPS, 5B cell line; for Luciferase 5B/3B (% of DMSO control 5B)/(% of DMSO control 3B): ratio of 5B to control 3B cell line
Procedure: The candidate compounds were tested in a high-throughput, cell-based luciferase reporter assay. For this assay, a commercially available mouse macrophage Raw 264.7 cell line was stably transfected with a construct containing the CMV promoter operably linked to the luciferase gene which was modified using standard molecular biology techniques to contain the entire 3′ UTR of the TNFα gene. This 3′ UTR is important for the stability and translation of TNFα in cells. To control for effects of candidate compounds that are not specific for TNFα, a control cell line, called “3B,” was generated by stably transfecting the 264.7 cell line with a commercially available construct containing the luciferase gene (without the addition of the heterologous 3′ UTR of the TNFα gene) under the regulation of the CMV promoter.
[…] Then, lipopolysaccharide (LPS) was added to stimulate TNFα secretion. Luciferase activity was measured by determining the luminescence intensity due to the reaction of lucifern, ATP, Mg^2+, and molecular O2 (see, for example, Ausubel et al., supra). The luciferase activity in a cell incubated with a candidate compound was reported as a percentage of the luciferase activity for the corresponding cell incubated with DMSO vehicle only.
After correction for any effect caused by the administration of the DMSO only vehicle control, the effect of a candidate compound on luciferase activity in the 3B control cell line represents the global effect of the compound on any step required for expression or activity of luciferase protein, such as luciferase gene transcription, mRNA processing, mRNA stability, translation, protein stability, or enzymatic activity. […] In this case, the luciferase activity in the 5B cell line treated with the DMSO vehicle control is similar to the luciferase activity in the control 3B cell line treated with the candidate compound. Thus, the response of the 5B cell line (as a percent of the DMSO control) and the ratio of the luciferase activity in the 5B cell line (as a percent of the DMSO control) to the luciferase activity in the control 3B cell line (as a percent of the DMSO control) are similar. In desirable embodiments, the response of the 5B cell line and the 5B/3B ratio differ by less than 50, 40, 30, 20, 10, or 5%.

SMILES | effect on luciferase activity in the 5B cell line (luciferase assay), in words | Luciferase 5B (% of DMSO control) | Luciferase 5B/3B (% of DMSO control 5B)/(% of DMSO control 3B)
CC(=NNC(=N)N)c1cccc(C(=O)NC(CC2CCCCC2)C(=O)N2CCN(C(=O)C(Cc3ccccc3)NC(=O)c3ccc(C(=NNC(=N)N)c4ccccc4)cc3)CC2)c1 (mixture of isomers) [MES 10181] | inhibited TNFα secretion | 17 % of DMSO control | 49 (% of DMSO control 5B)/(% of DMSO control 3B)
CC(=NNC(=N)N)c1cccc(C(=O)NC(C(=O)N2CCN(C(=O)C(Cc3ccccc3)NC(=O)c3ccc(C(=NNC(=N)N)c4ccccc4)cc3)CC2)C(C)C)c1 (mixture of isomers) [MES 10183] | inhibited TNFα secretion | 58 % of DMSO control | 57 (% of DMSO control 5B)/(% of DMSO control 3B)
CCCCC(NC(=O)c1ccc(C(=NNC(=N)N)c2ccccc2)cc1)C(=O)N1CCN(C(=O)C(Cc2ccccc2)NC(=O)c2ccc(C(=NNC(=N)N)c3ccccc3)cc2)CC1 (mixture of isomers) [MES 10184] |  | 22 % of DMSO control | 35 (% of DMSO control 5B)/(% of DMSO control 3B)
CC(C)CC(NC(=O)c1ccc([N+](=O)[O-])cc1)C(=O)N1CCN(C(=O)C(Cc2ccccc2)NC(=O)c2ccc(C(=NNC(=N)N)c3ccccc3)cc2)CC1 (mixture of isomers) [MES 10224] |  | 36 % of DMSO control | 37 (% of DMSO control 5B)/(% of D
CC(C)CC(NC(=O)c1ccc(I)cc1)C(=O)N1CCN(C(=O)C(Cc2ccccc2)NC(=O)c2ccc(C(=NNC(=N)N)c3ccccc3)cc2)CC1 (mixture of isomers) [MES 10226] | greatest inhibitor activity | 23 % of DMSO control | 26 (% of DMSO control 5B)/(% of D
CC(C)CC(NC(=O)c1ccc(Cl)cc1)C(=O)N1CCN(C(=O)C(Cc2ccccc2)NC(=O)c2ccc(C(=NNC(=N)N)c3ccccc3)cc2)CC1 (mixture of isomers) [MES 10227] |  | 34 % of DMSO control | 39 (% of DMSO control 5B)/(% of D
CC(C)CC(NC(=O)c1ccc2ccccc2c1)C(=O)N1CCN(C(=O)C(Cc2ccccc2)NC(=O)c2ccc(C(=NNC(=N)N)c3ccccc3)cc2)CC1 (mixture of isomers) [MES 10228] |  | 38 % of DMSO control | 40 (% of DMSO control 5B)/(% of D
CC(C)CC(NC(=O)c1ccc(C(=NNC(=N)N)c2ccccc2)cc1)C(=O)N1CCN(C(=O)C(Cc2ccccc2)NC(=O)CCc2cccnc2)CC1 (mixture of isomers) [MES 10234] |  | 60 % of DMSO control | 58 (% of DMSO control 5B)/(% of D
CC(C)CC(NC(=O)c1ccc(C(=NNC(=N)N)c2ccccc2)cc1)C(=O)N1CCN(C(=O)C(Cc2ccccc2)NC(=O)c2cnccn2)CC1 (mixture of isomers) [MES 10235] |  | 70 % of DMSO control | 75 (% of DMSO control 5B)/(% of D
CC(=NNC(=N)N)c1cccc(C(=O)NC(CC(C)C)C(=O)N2CCN(C(=O)C(Cc3ccc([N+](=O)[O-])cc3)NC(=O)c3ccc(C(=NNC(=N)N)c4ccccc4)cc3)CC2)c1 (mixture of isomers) [MES 10257] |  | 34 % of DMSO control | 60 (% of DMSO control 5B)/(% of DMSO control 3B)
